Laboratory results published in EP4806894A1, “TNAP INHIBITORY COMPOUND AND USE THEREOF” (Rednvia Co., Ltd., priority 2023, dated 2025).
pIC50: −log10 of the molar value.

Key:
TNAP = biological target: T1, TNAP (Homo sapiens, UniProt P05186); experiment: TNAP inhibitory activity, colorimetric assay (alkaline phosphatase assay kit ab83369, pNPP substrate); type: biochemical; settings: TNAP enzyme, 2 hours at room temperature, absorbance 405 nm
T1 sequence (P05186 18-502 limits assumed): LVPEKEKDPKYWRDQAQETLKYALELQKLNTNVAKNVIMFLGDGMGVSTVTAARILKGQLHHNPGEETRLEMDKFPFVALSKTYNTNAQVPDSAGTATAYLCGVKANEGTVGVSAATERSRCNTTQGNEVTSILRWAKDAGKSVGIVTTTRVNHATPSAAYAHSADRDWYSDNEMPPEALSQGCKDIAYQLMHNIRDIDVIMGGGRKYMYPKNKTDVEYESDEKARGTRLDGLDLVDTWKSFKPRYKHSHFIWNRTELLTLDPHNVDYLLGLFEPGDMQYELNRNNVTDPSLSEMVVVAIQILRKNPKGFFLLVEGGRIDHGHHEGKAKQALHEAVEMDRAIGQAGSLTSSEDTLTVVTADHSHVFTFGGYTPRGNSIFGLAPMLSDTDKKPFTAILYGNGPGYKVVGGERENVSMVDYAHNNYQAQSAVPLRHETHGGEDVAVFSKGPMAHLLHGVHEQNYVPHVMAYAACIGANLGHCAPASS
Description: The TNAP inhibitory activity of the compounds according to the present invention was analyzed by colorimetric assay.
The experiments were performed according to the protocol of the alkaline phosphatase assay kit ab83369.
TNAP enzyme at a concentration of 0.2 ng/µl was dispensed into a 96-well plate (Costar) (10 µl/well), to which the 10-fold diluted test substance was added (15 µl/well). The plate was incubated at room temperature, shielded from light, for 10 minutes to allow the enzyme and compound to act. After incubation, 125 µl of 1 mM substrate (pNPP) was added to each well of the plate, and the plate was incubated for 2 hours at room temperature in a darkened state to allow the enzyme, substrate, and test compound to act. Absorbance was measured at 405 nm using a microplate reader (Tecan spark), and IC50 was calculated using GraphPad Prism 9. The amount of p-nitrophenol produced was calculated through the absorbance, and the degree of TNAP activity inhibition was evaluated through the degree of inhibition of p-nitrophenol production, and the concentration of the compound that inhibited 50% was calculated as the IC50 value.

saos-2 cells = experiment: Anticalcification efficacy in saos-2 cells (osteogenic medium, Alizarin Red staining); type: cell-based; settings: test compound 1 µM, 7 days osteogenic medium, Alizarin Red absorbance 540 nm; for inhibition at 1 µM: Homo sapiens, 168 h, read-out: calcification inhibition
Description: To confirm the inhibitory effect of calcification in saos-2 cells in which calcification is induced by overexpression of TNAP, saos-2 cells were cultured in a culture medium in an incubator at 37°C, 95% humidity, and 5% CO2. RPMI-1640 (Corning) supplemented with 10% FBS (Gibco) and 1% Pen/Strep (Gibco) was used as the culture medium.
Saos-2 cells were seeded in a 48-well plate at the density of 1.5 x 10^4 cells/well and used in the experiment when they reached 80-90% confluence after stabilization for 2 days.
After saos-2 cells were cultured in a 48-well plate to 80-90% confluence, the culture medium was removed and replaced with an osteogenic medium (OM). DMEM (Gibco) containing 10% FBS, 1% Pen/Strep, 100 nM dexamethasone (Sigma), 10 mM β-glycerophosphate (Sigma), and 0.05 mM L-ascorbic acid (Sigma) was used as the OM. Osteogenic differentiation of saos-2 cells by OM was induced for 7 days, and OM was replaced every 2 to 3 days.
When inducing calcification through OM in saos-2 cells, the cells were treated with concentrations of […] of the TNAP inhibitor test compounds with the OM replacement cycle, except for the control group (OM).
After 7 days of OM induction, the medium was removed from each well and the plate was washed twice with PBS. Cells were fixed with 4% paraformaldehyde for 1 hour, then the fixative was removed and washed twice with deionized water (DW). ARS solution was added to the plate and shaken for 1 hour to stain the cells. When the cells were sufficiently stained red, the dye was removed, the cells were washed carefully with DW, dried, and then photographs were taken of the stained cells. The red-stained area represents calcification induced by OM, and the degree of calcification was determined based on the degree of redness. To quantify this, 10% cetylpyridinium chloride was dispensed into the wells and the dye was dissolved. The dye-dissolved solution was transferred to each well of a 96 well plate and absorbance was measured at 540 nm.
The degree of decrease in the measured absorbance by the test compounds based on the absorbance for OM was evaluated as the degree of inhibition of calcification.

Compound | pIC50 (TNAP) | calcification inhibition (saos-2 cells) | inhibition at 1 µM (saos-2 cells) [%]
2-methoxy-N-(5-oxo-5,6,7,8-tetrahydro-1,6-naphthyridine-3-yl)benzenesulfonamide [Example 26] | 7.00 to 8.00 | A (inhibition of 50% or more was expressed as "A") | 
4'-(aminomethyl)-4-fluoro-N-(5-oxo-5,6,7,8-tetrahydro-1,6-naphthyridine-3-yl)-[1,1'-biphenyl]-2-sulfonamide hydrochloride [Example 39] | 7.00 to 8.00 | A (inhibition of 50% or more was expressed as "A") | 
COc1ccc(Br)cc1S(=O)(=O)Nc1cnc2c(c1)C(=O)NC2 [Example 2, 5-bromo-2-methoxy-N-(5-oxo-6,7-dihydro-5H-pyrrolo[3,4-b]pyridine-3-yl)benzenesulfonamide] | 7.00 to 8.00 |  | ≥ 50
COc1ccc(OC)c(S(=O)(=O)Nc2cnc3c(c2)C(=O)NC3)c1 [Example 3, 2,5-dimethoxy-N-(5-oxo-6,7-dihydro-5H-pyrrolo[3,4-b]pyridine-3-yl)benzenesulfonamide] | 7.00 to 8.00 |  | ≥ 50
COc1ccc(F)cc1S(=O)(=O)Nc1cnc2c(c1)C(=O)NC2 [Example 4, 5-fluoro-2-methoxy-N-(5-oxo-6,7-dihydro-5H-pyrrolo[3,4-b]pyridine-3-yl)benzenesulfonamide] | 7.00 to 8.00 |  | ≥ 50
O=C1NCc2ncc(NS(=O)(=O)c3cc(Br)cc4c3OCC4)cc21 [Example 5, 5-bromo-N-(5-oxo-6,7-dihydro-5H-pyrrolo[3,4-b]pyridine-3-yl)-2,3-dihydrobenzofuran-7-sulfonamide] | 6.00 to 7.00 |  | 0 to 50
COc1ccc(OC)c(S(=O)(=O)Nc2cnc3c(c2)C(=O)NCC3)c1 [Example 7, 2,5-dimethoxy-N-(5-oxo-5,6,7,8-tetrahydro-1,6-naphthyridine-3-yl)benzenesulfonamide] | ≥ 8.00 |  | ≥ 50
COc1ccc(F)cc1S(=O)(=O)Nc1cnc2c(c1)C(=O)NCC2 [Example 8, 5-fluoro-2-methoxy-N-(5-oxo-5,6,7,8-tetrahydro-1,6-naphthyridine-3-yl)benzenesulfonamide] | 7.00 to 8.00 |  | ≥ 50
COc1ccc(Br)cc1S(=O)(=O)Nc1cnc2c(c1)C(=O)NCC2 [Example 9, 5-bromo-2-methoxy-N-(5-oxo-5,6,7,8-tetrahydro-1,6-naphthyridine-3-yl)benzenesulfonamide] | ≥ 8.00 |  | ≥ 50
O=C1NCCc2ncc(NS(=O)(=O)c3cc(Br)cc4c3OCC4)cc21 [Example 10, 5-bromo-N-(5-oxo-5,6,7,8-tetrahydro-1,6-naphthyridine-3-yl)-2,3-dihydrobenzofuran-7-sulfonamide] | 6.00 to 7.00 |  | ≥ 50
O=C1NCc2ncc(NS(=O)(=O)c3cc(F)ccc3Br)cc21 [Example 11, 2-bromo-5-fluoro-N-(5-oxo-6,7-dihydro-5H-pyrrolo[3,4-b]pyridine-3-yl)benzenesulfonamide] | ≤ 6.00 |  | ≥ 50
O=C1NCc2ncc(NS(=O)(=O)c3c(F)cc(F)cc3Br)cc21 [Example 12, 2-bromo-4,6-difluoro-N-(5-oxo-6,7-dihydro-5H-pyrrolo[3,4-b]pyridine-3-yl)benzenesulfonamide] | ≤ 6.00 |  | < 0
COc1ccc(Cl)cc1S(=O)(=O)Nc1cnc2c(c1)C(=O)NCCC2 [Example 13, 5-chloro-2-methoxy-N-(5-oxo-6,7,8,9-tetrahydro-5H-pyrido[3,2-c]azepine-3-yl)benzenesulfonamide] | 6.00 to 7.00 |  | ≥ 50
COc1ccc(Br)cc1S(=O)(=O)Nc1cnc2c(c1)C(=O)NCCC2 [Example 14, 5-bromo-2-methoxy-N-(5-oxo-6,7,8,9-tetrahydro-5H-pyrido[3,2-c]azepine-3-yl)benzenesulfonamide] | 6.00 to 7.00 |  | ≥ 50
COc1ccc(F)cc1S(=O)(=O)Nc1cnc2c(c1)C(=O)NCCC2 [Example 15, 5-fluoro-2-methoxy-N-(5-oxo-6,7,8,9-tetrahydro-5H-pyrido[3,2-c]azepine-3-yl)benzenesulfonamide] | 6.00 to 7.00 |  | ≥ 50
COc1ccc(OC)c(S(=O)(=O)Nc2cnc3c(c2)C(=O)NCCC3)c1 [Example 16, 2,5-dimethoxy-N-(5-oxo-6,7,8,9-tetrahydro-5H-pyrido[3,2-c]azepine-3-yl)benzenesulfonamide] | 6.00 to 7.00 |  | ≥ 50
O=C1NCCCc2ncc(NS(=O)(=O)c3cc(Br)cc4c3OCC4)cc21 [Example 17, 5-bromo-N-(5-oxo-6,7,8,9-tetrahydro-5H-pyrido[3,2-c]azepine-3-yl)-2,3-dihydrobenzofuran-7-sulfonamide] | ≤ 6.00 |  | < 0
O=C1NCc2ncc(NS(=O)(=O)c3cccc4c3OCC4)cc21 [Example 18, N-(5-oxo-6,7-dihydro-5H-pyrrolo[3,4-b]pyridine-3-yl)-2,3-dihydrobenzofuran-7-sulfonamide] | ≤ 6.00 |  | < 0
O=C1NCCc2ncc(NS(=O)(=O)c3cccc4c3OCC4)cc21 [Example 19, N-(5-oxo-5,6,7,8-tetrahydro-1,6-naphthyridine-3-yl)-2,3-dihydrobenzofuran-7-sulfonamide] | ≤ 6.00 |  | < 0
O=C1NCc2ncc(NS(=O)(=O)c3cc(Cl)cc4c3OCC4)cc21 [Example 20, 5-chloro-N-(5-oxo-6,7-dihydro-5H-pyrrolo[3,4-b]pyridine-3-yl)-2,3-dihydrobenzofuran-7-sulfonamide] | ≤ 6.00 |  | < 0
O=C1NCc2ncc(NS(=O)(=O)c3cc(F)cc4c3OCC4)cc21 [Example 21, 5-fluoro-N-(5-oxo-6,7-dihydro-5H-pyrrolo[3,4-b]pyridine-3-yl)-2,3-dihydrobenzofuran-7-sulfonamide] | ≤ 6.00 |  | < 0
O=C1NCCc2ncc(NS(=O)(=O)c3cc(Cl)cc4c3OCC4)cc21 [Example 22, 5-chloro-N-(5-oxo-5,6,7,8-tetrahydro-1,6-naphthyridine-3-yl)-2,3-dihydrobenzofuran-7-sulfonamide] | 6.00 to 7.00 |  | ≥ 50
O=C1NCCc2ncc(NS(=O)(=O)c3cc(F)cc4c3OCC4)cc21 [Example 23, 5-fluoro-N-(5-oxo-5,6,7,8-tetrahydro-1,6-naphthyridine-3-yl)-2,3-dihydrobenzofuran-7-sulfonamide] | ≤ 6.00 |  | < 0
O=C1NCCc2ncc(NS(=O)(=O)c3ccc4c(c3)OCCO4)cc21 [Example 24, N-(5-oxo-5,6,7,8-tetrahydro-1,6-naphthyridine-3-yl)-2,3-dihydrobenzo[b][1,4]dioxine-6-sulfonamide] | ≤ 6.00 |  | < 0
O=C1COc2ccc(S(=O)(=O)Nc3cnc4c(c3)C(=O)NCC4)cc2N1 [Example 25, 3-oxo-N-(5-oxo-5,6,7,8-tetrahydro-1,6-naphthyridine-3-yl)-3,4-dihydro-2H-benzo[b][1,4]oxazine-6-sulfonamide] | ≤ 6.00 |  | < 0
COc1ccc(Cl)cc1S(=O)(=O)Nc1cncc(C(N)=O)c1 [SBD-425, reference compound] | 6.00 to 7.00 |  | 
